The assay has as its target T1, TRPA1 receptor (Homo sapiens, UniProt O75762).
T1 construct: expressed in transfected cells; host or cells: HEK cell line
The experiment in a line: cell-based. Also noted: activation: dose or concentration left out as unconfirmed. As to the method: The term “TRPA1 activator” as used herein refers to any component which at a concentration of 1 mM gives a calcium flux count of at least 1000 counts above the background level of calcium present in the cell according to the FLIPR method as discussed herein. The term “count” is defined as the change in fluorescence of the transfected cell lines due to the influx of calcium across the cell membrane, which reacts with the calcium sensitive dye present within the cells.
In order to select TRPA1 agonists that would be preferred for reducing off-tasting chemical components found in oral care compositions, calcium flux receptor activity on the TRPA1 was utilized as the criteria for selection of actives. With allyl isothiocyanate as the TRPA1 positive control, molecules that directly activated the TRPA1 receptor were screened in dimethylsulfoxide (DMSO). Pure molecules of each material were dissolved in DMSO at a concentration of 100 micormolar and then added to an HEK cell line containing the TRPA1 receptor. If they are TRPA1 agonists, they will cause a calcium flux in the cell which fluoresces and may then be measured using a FLIPR machine.

[1] abbreviates: HEK293, percentage of the control (allyl isothiocyanate) calcium count, material dissolved in DMSO at 100 micromolar, HEK cells with TRPA1, direct addition, read-out: TRPA1 Direct addition.
[2] abbreviates: HEK293, percentage of the control (allyl isothiocyanate) calcium count, material dissolved in DMSO at 100 micromolar, HEK cells with TRPA1, pre-incubation, read-out: TRPA1 Pre-incubation.
[3] abbreviates: HEK293, read-out: TRPA1 Direct addition.
The mark [4] stands for this setting: HEK293, read-out: TRPA1 Pre-incubation.

Results on 65 compounds are retold here after patent US9937115B2, “Oral care compositions with improved flavor” (priority 2010, dated 2018).

The structures appear in SMILES notation. Where two headings read alike, the source gives them in different places.
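Wherever TRPA1 Pre-incubation is given: values above 100 mean more active than the control.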

T1 sequence (O75762 whole entry): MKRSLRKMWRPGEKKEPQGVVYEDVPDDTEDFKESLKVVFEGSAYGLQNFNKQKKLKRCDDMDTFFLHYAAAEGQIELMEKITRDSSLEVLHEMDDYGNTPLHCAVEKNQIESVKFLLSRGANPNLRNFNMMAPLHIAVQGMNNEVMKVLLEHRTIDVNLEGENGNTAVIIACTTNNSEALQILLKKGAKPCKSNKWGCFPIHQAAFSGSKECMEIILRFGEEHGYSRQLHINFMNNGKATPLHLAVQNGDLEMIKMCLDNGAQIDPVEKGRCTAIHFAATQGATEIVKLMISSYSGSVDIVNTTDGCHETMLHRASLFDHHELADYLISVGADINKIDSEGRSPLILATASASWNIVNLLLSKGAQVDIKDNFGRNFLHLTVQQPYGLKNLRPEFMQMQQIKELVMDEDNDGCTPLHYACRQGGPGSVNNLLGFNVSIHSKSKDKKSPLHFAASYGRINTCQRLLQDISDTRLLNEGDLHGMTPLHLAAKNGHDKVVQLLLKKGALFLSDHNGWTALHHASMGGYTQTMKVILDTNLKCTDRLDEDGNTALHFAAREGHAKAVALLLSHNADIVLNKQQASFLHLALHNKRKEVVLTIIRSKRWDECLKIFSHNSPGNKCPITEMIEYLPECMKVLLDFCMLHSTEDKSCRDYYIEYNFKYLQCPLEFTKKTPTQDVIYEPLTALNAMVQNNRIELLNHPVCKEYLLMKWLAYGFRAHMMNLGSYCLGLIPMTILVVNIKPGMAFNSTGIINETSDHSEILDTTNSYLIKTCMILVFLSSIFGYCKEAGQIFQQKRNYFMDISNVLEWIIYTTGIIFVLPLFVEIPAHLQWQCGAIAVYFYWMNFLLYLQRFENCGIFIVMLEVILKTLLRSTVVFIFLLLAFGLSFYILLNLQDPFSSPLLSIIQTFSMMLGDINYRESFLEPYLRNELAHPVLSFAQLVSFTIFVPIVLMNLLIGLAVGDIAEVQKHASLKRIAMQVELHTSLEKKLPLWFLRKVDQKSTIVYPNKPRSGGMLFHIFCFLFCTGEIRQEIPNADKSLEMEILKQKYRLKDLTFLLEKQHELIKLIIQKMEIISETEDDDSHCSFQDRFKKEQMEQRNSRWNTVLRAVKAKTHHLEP

`CC(=O)OC1CCCCC1` [Cyclohexyl Acetate]: the activation at 100 µM under setting [1] is -1.27%. For the same compound, the activation under setting [2] was determined as 68.8%.
Turning to `CCOC(=O)C(C)CC` (stereo not shown) [Ethyl 2-Methylbutyrate], the activation at 100 µM under setting [1] was 0.26%. For the same compound, under setting [2], the activation worked out at 82%.
As to `CCOC(=O)c1ccccc1` [Ethyl Benzoate], the activation at 100 µM under setting [1] is -0.07%. Also, the activation under setting [2] is 60.3%.
For `CCCC(=O)OCC` [Ethyl Butyrate], under setting [1], the activation at 100 µM is -0.32%. Also, under setting [2], the activation was found to be 87%.
`CCCCCCC(=O)OCC` [Ethyl Heptanoate]: under setting [1], the activation at 100 µM turned out to be 0.23%. Moreover, under setting [2], the activation stood at 79%.
For `CCCCCC(=O)OCC` [Ethyl Hexanoate] the same measures were 0.41% and 92.3%.
Turning to `CCOC(=O)CC(C)C` [Ethyl Isovalerate], under setting [1], the activation at 100 µM is -0.05%. For the same compound, the activation under setting [2] was 62.8%.
For `CCOC(=O)C(C)O` (stereo not shown) [Ethyl Lactate], in that order: -0.14% and 67.4%.
For `CCCCCCCCCCCC(=O)OCC` [Ethyl Laurate] the same measures were 0.12% and 75.8%.
For `CCCCCCCC(=O)OCC` [Ethyl Octanoate] the same measures were -0.14% and 87.3%.
As for `CCOC(=O)Cc1ccccc1` [Ethyl Phenylacetate], the activation is -0.28% under setting [3] and 76.2% under setting [4].
For the compound `CCOC(=O)c1ccccc1O` [Ethyl Salicylate], the activation at 100 µM under setting [1] is -0.53%. Further, the activation under setting [2] is 106%.
For `CCCCC(=O)OCC` [Ethyl Valerate], in that order: -0.08% and 101%.
For `O=C1CCCCCCCCCCCC(=O)OCCO1` [Ethylene Brassylate], in that order: -0.58% and 37.2%.
As to `C=CCc1ccc(OC(=O)c2ccccc2)c(OC)c1` [Eugenol benzoate], the activation at 100 µM under setting [1] was determined as 22.9%. Under setting [2], the activation came out at 57.3%.
For `CC(C)=CCCC(C)=CCCC(C)=CCO` [Farnesol], in that order: 0.1% and 56.6%.
For `O=Cc1ccco1` [Furfural], in that order: -0.15% and 69%.
For `CC1=CCC(C(C)C)=CC1` [Gamma-Terpinene] the same measures were 0.21% and 61.5%.
As to `CC(C)=CCC/C(C)=C/CO` [Geraniol], the activation at 100 µM under setting [1] is 5.19%. The activation under setting [2] was determined as 113%.
For `CC(=O)OC/C=C(\C)CCC=C(C)C` [Geranyl Acetate] the same measures were 0.33% and 63.2%.
For `CCCC(=O)OC/C=C(\C)CCC=C(C)C` [Geranyl Butyrate] the same measures were 0.12% and 61.5%.
For `CCC(=O)OC/C=C(\C)CCC=C(C)C` [Geranyl Propionate] the same measures were 0.09% and 47.9%.
As to `COc1ccccc1O` [Guaiacol], under setting [1], the activation at 100 µM was -0.08%. In addition, the activation under setting [2] was 87.7%.
For `CCCCCCCO` [Heptyl Alcohol] the same measures were 0.59% and 70.7%.
For `CCCCCC(=O)O` [Hexanoic Acid] the same measures were -0.4% and 67.2%.
Consider `CCCCCCOC(C)=O` [Hexyl Acetate], for which the activation at 100 µM under setting [1] was -0.01%. Moreover, the activation under setting [2] turned out to be 49.1%.
For `CCCCCCO` [Hexyl Alcohol], in that order: -0.22% and 66.2%.
For `CCCCCCOC(=O)CCCCC` [Hexyl Hexanoate] the same measures were 0.07% and 67.4%.
For `CCCCCCOC(=O)CC` [Hexyl Propionate], in that order: -15.9% and 78.9%.
`CCCCCCOC(=O)C(C)CC` (stereo not shown) [Hexyl-2-Methylbutyrate]: the activation at 100 µM under setting [1] was -0.38%. Further, under setting [2], the activation was determined as 67.1%.
For `CC(=O)OCCC(C)C` [Isoamyl Acetate], in that order: 0.07% and 41%.
For `CC(C)CCO` [Isoamyl Alcohol], the activation runs as follows: under setting [3], -0.15%; under setting [4], 70.9%.
For the compound `CC(C)CCOC(=O)CC(C)C` [Isoamyl Isovalerate], the activation at 100 µM under setting [1] was 0.18%. For the same compound, the activation under setting [2] worked out at 59.6%.
For `CC(=O)OCC(C)C` [Isobutyl Acetate] the same measures were -0.23% and 95.7%.
For `CCCCCC(=O)OCC(C)C` [Isobutyl Hexanoate] the same measures were -17.1% and 53.1%.
For `CC/C=C\CC1=C(C)CCC1=O` [Jasmone], in that order: 46.5% and 51.6%.
Regarding `CCCCCCCCCCCC(=O)O` [Lauric Acid], the activation at 100 µM under setting [1] is -2.82%. For the same compound, the activation under setting [2] was 96%.
For `CCCCCCCCCCCCO` [Lauryl Alcohol], in that order: -0.86% and 50.5%.
For `C=CC(C)(O)CCC=C(C)C` (stereo not shown) [Linalool], in that order: -1.58% and 44.8%.
For `C=CC(C)(CCC=C(C)C)OC(C)=O` (stereo not shown) [Linalyl Acetate], in that order: -0.9% and 77.2%.
Turning to `COc1cccc(OC)c1` [M-Dimethoxybenzene], the activation at 100 µM under setting [1] is -0.59%. In addition, the activation under setting [2] amounted to 80.6%.
For `CC(O)C(=O)[O-].CC(O)C(=O)[O-].[Mg+2]` (stereo not shown) [Magnesium Lactate], the “TRPA1 Direct addition” value is reported as −4.49% and the “TRPA1 Pre-incubation” value was determined as 58.12%.
In the case of `Cc1occc(=O)c1O` [Maltol], under setting [1], the activation at 100 µM is -2.79%. For the same compound, the activation under setting [2] was 102%.
For `CCCCCCCCCCO` [Material 1-Decanol, 1-Decanol] the same measures were -1.41% and 59.8%.
`CCCCCCCC(C)=O` [Material 2-Nonanone, 2-Nonanone]: the activation at 100 µM under setting [1] is 0.36%. The activation under setting [2] was determined as 77.2%.
In the case of `CCCCCCC(C)O` (stereo not shown) [Material 2-Octanol, 2-Octanol], the activation at 100 µM under setting [1] was -14.1%. Moreover, the activation under setting [2] was determined as 55.3%.
For `CCCCCCC(C)=O` [Material 2-Octanone, 2-Octanone], in that order: -17.1% and 93.3%.
For `CCCC(C)=O` [Material 2-Pentanone, 2-Pentanone], in that order: 0.73% and 90.1%.
For `CCCCCCCCCC(C)=O` [Material 2-Undecanone, 2-Undecanone], in that order: 10.7% and 65.9%.
As for `CCCCC(O)CC` (stereo not shown) [Material 3-Heptanol, 3-Heptanol], under setting [1], the activation at 100 µM was -1.06%. For the same compound, the activation under setting [2] was found to be 81.3%.
For `CC(=O)OC1CC(C)CCC1C(C)C` (stereo not shown) [Menthyl Acetate], in that order: -7.24% and 75.8%.
For `COC(=O)c1ccccc1N` [Methyl Anthranilate], in that order: 69.6% and 1.27%.
For `COC(=O)/C=C/c1ccccc1` [Methyl trans-Cinnamate], the activation at 100 µM under setting [1] was -16.8%. In addition, the activation under setting [2] came to 69.4%.
For `CCCCCCCCC=O` [Nonanal] the same measures were -14% and 51.4%.
In the case of `CCCCCCCC=O` [Octanal], under setting [1], the activation at 100 µM is -11%. Under setting [2], the activation turned out to be 87.9%.
For `O=C(OCCc1ccccc1)c1ccccc1O` [Phenethyl salicylate], in that order: 7.36% and 110%.
For `CC(C)C(=O)OCCOc1ccccc1` [Phenoxyethyl Isobutyrate] the same measures were -7.84% and 36.8%.
Regarding `OCCc1ccccc1` [Phenyl Ethyl Alcohol], the activation at 100 µM under setting [1] is -4.77%. Also, the activation under setting [2] came out at 55%.
For `COC(Cc1ccccc1)OC` [Phenylacetaldehyde Dimethyl Acetal] the same measures were -14.8% and 81.4%.
For `CC(=O)OCCc1ccccc1` [Phenylethyl Acetate] the same measures were -22.5% and 93.8%.
With `CC(C)C(=O)OCCc1ccccc1` [Phenylethyl Isobutyrate], the activation at 100 µM under setting [1] was -3.56%. In addition, the activation under setting [2] came to 63.9%.
For the compound `CC(=O)OCc1ccc2c(c1)OCO2` [Piperonyl Acetate], the activation at 100 µM runs as follows: under setting [3], -0.28%; under setting [4], 102%.
Turning to `CCCCCC=CC=CC(=O)OCCC` [Propyl 2,4-Decadienoate], the activation at 100 µM under setting [1] is -15.7%. Besides, under setting [2], the activation was determined as 105%.
Turning to `O=C1NS(=O)(=O)c2ccccc21.[Na]` [Saccharin Sodium], the activation is -12.4% under setting [3] and 62.5% under setting [4].
`O=Cc1ccccc1O` [Salicylaldehyde]: the activation at 100 µM under setting [1] came out at 0.01%. In addition, the activation under setting [2] turned out to be 62.5%.
